# In US7838005B2, “Treatment of insulin resistance by administering an acid-sensing ion channel 3 inhibitor” (priority 2007, dated 2010):
# Columns and labels:
# [1] = tested on: rodents; details: salicylate 120 mg/kg/day, continual treatment; cited from earlier work
# [2] = target: T1, WAT-expressed ASIC3 (Mus musculus, UniProt Q6X1Y6); experiment: Whole-cell patch recording of acid-evoked currents in cultured SVF adipose cells; type: cell-based; details: pH 5.0 evoked currents, SVF adipose cells from mice 8 to 10 weeks old, voltage-clamp
# T1 construct: Whole cell recordings were made of primary culture adipose cells; endogenous in cells; host or cells: primary stromal-vascular fraction (SVF) adipose cells from periovarian white adipose tissue of female mice
# T1 sequence (Q6X1Y6 1-530): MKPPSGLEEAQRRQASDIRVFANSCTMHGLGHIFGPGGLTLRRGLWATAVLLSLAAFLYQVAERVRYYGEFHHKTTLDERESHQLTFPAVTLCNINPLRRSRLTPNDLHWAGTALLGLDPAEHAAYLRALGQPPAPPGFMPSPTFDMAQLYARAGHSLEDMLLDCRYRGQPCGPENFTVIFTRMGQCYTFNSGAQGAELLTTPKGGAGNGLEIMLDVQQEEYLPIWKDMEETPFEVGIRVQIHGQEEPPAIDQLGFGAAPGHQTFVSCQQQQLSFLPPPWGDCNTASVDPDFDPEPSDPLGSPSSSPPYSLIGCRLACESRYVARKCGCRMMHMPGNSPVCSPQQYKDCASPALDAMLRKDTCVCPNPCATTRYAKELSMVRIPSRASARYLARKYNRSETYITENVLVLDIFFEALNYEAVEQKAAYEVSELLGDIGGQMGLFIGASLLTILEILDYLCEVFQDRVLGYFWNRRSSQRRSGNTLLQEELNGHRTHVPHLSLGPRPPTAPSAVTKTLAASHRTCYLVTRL
# Description: Fat pads of periovarian white adipose tissue (WAT) were isolated from female mice. One gram of the isolated fat pad was digested with 2 mg/ml of collagenase type VIII (Sigma) in 4 ml Dulbecco's modified Eagle's medium (DMEM) at 37° C. for 1 hour. Then, the digested tissues were centrifuged at 200×g for 5 minutes at 4° C. The supernatant, which contains mature adipocytes, was collected for RNA isolation. The cell pellet, the stromal-vascular fraction (SVF), consisted of mesenchynal cells (adipoblasts) and immature adipocytes (adipocyte precursors and postadipocytes) (Van, The adipocyte precusor cell. In: New perspectives in adipose tissue:structure, function, and development. Butterworths, Borough Green, England, chapt. 15, 353-382, 1985). The SVFs were collected for RNA isolation or re-suspended for cell culture in DMEM containing 10% fetal calf serum and antibiotics. SVF cells were plated at a concentration of 10^5 cells per glass cover slide (12 mm in diameter) and maintained at 37° C. in 5% humidified carbon dioxide. The cultured cells then underwent whole-cell patch recording in 5 days. […]
# To determine whether WAT-expressed ASIC3 is functional, we applied whole-cell patch recording to examine the acid-evoked currents in cultured SVF cells isolated from mice 8 to 10 weeks old. […]
# [3] = target: T2, IKKβ (Mus musculus, UniProt O88351); details: salicylate 120 mg/kg/day, continual treatment, rodents; cited from earlier work
# T2 construct: host or cells: rodents (in vivo)
# T2 sequence (O88351 1-757): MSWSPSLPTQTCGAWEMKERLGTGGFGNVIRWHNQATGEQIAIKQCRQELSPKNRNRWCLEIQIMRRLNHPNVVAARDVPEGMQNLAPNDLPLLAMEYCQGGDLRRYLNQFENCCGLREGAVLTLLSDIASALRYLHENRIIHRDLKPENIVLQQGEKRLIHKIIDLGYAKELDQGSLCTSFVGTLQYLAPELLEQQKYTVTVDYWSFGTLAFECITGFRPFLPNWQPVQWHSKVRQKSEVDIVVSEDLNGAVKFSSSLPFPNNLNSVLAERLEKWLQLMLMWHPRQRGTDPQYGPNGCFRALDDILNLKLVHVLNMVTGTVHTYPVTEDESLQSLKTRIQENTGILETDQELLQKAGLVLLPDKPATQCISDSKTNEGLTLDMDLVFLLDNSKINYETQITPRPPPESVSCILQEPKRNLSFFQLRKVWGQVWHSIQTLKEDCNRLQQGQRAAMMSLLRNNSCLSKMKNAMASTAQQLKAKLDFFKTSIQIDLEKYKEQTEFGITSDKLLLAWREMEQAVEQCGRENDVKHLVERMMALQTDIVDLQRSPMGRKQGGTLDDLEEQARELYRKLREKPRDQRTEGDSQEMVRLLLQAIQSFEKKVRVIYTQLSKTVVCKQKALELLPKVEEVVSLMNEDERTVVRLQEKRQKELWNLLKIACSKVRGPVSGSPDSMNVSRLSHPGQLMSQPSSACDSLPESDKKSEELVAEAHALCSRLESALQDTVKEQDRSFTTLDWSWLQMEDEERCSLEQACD
# [4] = tested on: aging ASIC3+/+ mice; experiment: Glucose tolerance test (GTT) with ASIC3 blockers in aging mice; type: in vivo; details: salicylic acid 14 mg/kg or APETx2 0.23 mg/kg injected intraperitoneally with glucose 1.5 mg/g after overnight fast
# Description: (§1) ASIC3−/− mice were generated as described in Chen et al., Proc. Natl. Acad. Sci. USA 99, 8992-8997, 2002. Congenic 129 mice were derived from breeding ASIC3 chimera with female 129S2/SvPasCrl wild type mice. All mice were raised in a 12:12-h light-dark cycle at 25° C. and 40% to 70% humidity. All experiments involved use of female mice in different age groups. The animals were bred in a specific pathogen-free facility and cared for in accordance with the Guide for the Use of Laboratory Animals (National Academy Press, Washington D.C.). The experimental protocol was approved by the animal use committee of Academia Sinica.
# (§2) Mice of 9, 16, or 25 weeks old were tested for glucose tolerance (GTT) and those of 18 or 27 weeks old for insulin tolerance (ITT). For GTT, the mice fasted overnight then were injected with glucose intraperitoneally at 1.5 mg/g body weight. For ITT, the mice were given free access to food and injected with insulin intraperitoneally at 0.5 mU/g body weight. The glucose levels were measured in blood withdrawn from the tail vein. To study effects of ASIC3 blockers, salicylic acid (14 mg/kg) or APETx2 (0.23 mg/kg) were injected with glucose or insulin intraperitoneally.
# (§3) To test whether ASIC3 selective blockers could reverse age-dependent glucose intolerance and insulin resistance, we tested the effects of salicylic acid and APETx2 in the aging mouse groups. […]
# [5] = tested on: aging ASIC3+/+ mice; experiment: Insulin tolerance test (ITT) with ASIC3 blockers in aging mice; type: in vivo; details: salicylic acid 14 mg/kg or APETx2 0.23 mg/kg injected intraperitoneally with insulin 0.5 mU/g
# Description: as §1, §2, §3
Compound,effect on obesity- and diet-induced insulin resistance [1],sensitivity of acid-induced inward currents to blocker [2],effect on IKKβ activity [3],effect on age-dependent glucose tolerance (GTT) [4],effect on insulin tolerance test / insulin sensitivity (ITT) [5]
O=C(O)c1ccccc1O [salicylic acid],reversed obesity- and diet-induced insulin resistance,sensitive,disrupted IKKβ activity,reverse in part the age-dependent effect of glucose tolerance,not affect insulin tolerance test
APETx2,–,sensitive,–,effectively reverse the age-dependent effect of glucose tolerance,significantly enhance the insulin sensitivity
